From paper PMC9934367, “Functional impact of subunit composition and compensation on Drosophila melanogaster nicotinic receptors–targets of neonicotinoids” (PLOS Genetics, 2023)
Like-named read-outs stand apart in the source and are kept apart here.

What was measured:
Dα3/Dβ1 nAChR = target: T1, Dα3/Dβ1 nAChR (Drosophila melanogaster, UniProt P04755+Q9W3G6); assay: cell-based; format: cell-based, D. melanogaster; details: Dα3/Dβ1 nAChR, mean ± standard error (n = 5)
T1 construct: Dβ1 (NP_523927); expressed in transfected cells; host or cells: Xenopus laevis oocytes (cRNA injection)
Procedure: (§1) cDNAs of the nAChR subunits and co-factors were cloned into pcDNA3.1 (+) vector (Thermo Fisher Scientific). The accession numbers of the nAChR subunits and cofactors are as follows: Dα1 (NP_524481), Dα2 (NP_524482), Dα3 (NP_525079), Dα4 (CAB77445), Dβ1 (NP_523927), Dβ2 (NP_524483), Dβ3 (NP_525098), DmRIC-3 (CAP16647), DmUNC-50 (NP_649813), and DmTMX3 (NP_648847). cRNAs were prepared using the mMESSAGE mMACHINE T7 ULTRA Transcription Kit (Thermo Fisher Scientific, #AM1345) according to the manual with the cDNA template which was cut with appropriate restriction enzymes at the 3’ end of the cDNA.
(§2) We minimised the use of X. laevis according to the UK Animals (Scientific Procedures) Act, 1986. […] Oocytes were defolliculated after collagenase treatment in Ca^2+-free standard oocyte saline (Ca^2+-free SOS). cRNAs of the nAChR subunits and co-factors mixed at a concentration of 0.1 mg/mL was injected into oocytes at a volume of 50 nL. Then the oocytes were incubated in the incubation medium (SOS supplemented with sodium pyruvate (Nacalai Tesque, #13058–12), penicillin-streptomycin (MilliporeSigma, #P4333), gentamycin (Nacalai Tesque, #16672–04), and 4% horse serum (Thermo Fisher Scientific, #26050–070) for 3−4 days prior to electrophysiology.
(§3) Each defolliculated X. laevis oocyte was secured in a Perspex recording chamber and perfused with the standard oocyte saline (SOS) containing 0.5 μM atropine (SOSA) at a flow rate of 7−10 mL/min [48]. Two glass electrodes filled with 2 M KCl were impaled into each oocyte and the membrane potential was clamped at -100 mV. […] The peak amplitude of the response was measured and analysed by pCLAMP (Molecular Devices, USA).
(§4) Y=Imax/1+10^(logEC50‐X)nH
(§5) Where Y is the normalised response, X is log[ligand (M)], EC50 is the half maximal concentration (M), Imax is the maximum normalised response and nH is the Hill coefficient.

Dα1/Dα3/Dβ1 nAChR = target: T2, Dα1/Dα3/Dβ1 nAChR (Drosophila melanogaster, UniProt P04755+P09478+Q9W3G6); assay: cell-based; parameters: species or system D. melanogaster
T2 construct: Dα1 (NP_524481); Dβ1 (NP_523927); expressed in transfected cells; host or cells: Xenopus laevis oocytes (cRNA injection)
Procedure: as §1, §2, §3, §4, §5

Dα1/Dα2/Dα3/Dβ1 nAChR = target: T3, Dα1/Dα2/Dα3/Dβ1 nAChR (Drosophila melanogaster, UniProt P04755+P09478+P17644+Q9W3G6); assay: cell-based; parameters: species or system D. melanogaster; details: mean ± standard error (n = 5)
T3 construct: Dα1 (NP_524481); Dα2 (NP_524482); Dβ1 (NP_523927); expressed in transfected cells; host or cells: Xenopus laevis oocytes (cRNA injection)
Procedure: as §1, §2, §3, §4, §5

Dα1/Dα3/Dβ1/Dβ2 nAChR = target: T4, Dα1/Dα3/Dβ1/Dβ2 nAChR (Drosophila melanogaster, UniProt P04755+P09478+P25162+Q9W3G6); assay: cell-based; parameters: species or system D. melanogaster; details: mean ± standard error (n = 5)
T4 construct: Dα1 (NP_524481); Dβ1 (NP_523927); Dβ2 (NP_524483); expressed in transfected cells; host or cells: Xenopus laevis oocytes (cRNA injection)
Procedure: as §1, §2, §3, §4, §5

[1] = test system: Adult D. melanogaster flies; assay: Adult climbing assay; format: in vivo; details: RNAi of Dα2
Procedure: (§6) All flies were raised at 25°C under 12 h/12 h light/dark cycle. The animals were reared on standard fly food containing 5.5 g agar, 100 g glucose, 40 g dry yeast, 90 g cornflour, 3 mL propionic acid, and 3.5 mL 10% butyl p-hydroxybenzoate (Nacalai Tesque, Japan, #06327–15) in 70% ethanol per liter. The control strain was w^1118, and transgenic flies are as follows: UAS-nAChRα1 RNAi (#28688) was obtained from the Bloomington Drosophila Stock Center (BDSC); UAS-nAChRα2 RNAi (UAS-Dα2 RNAi, #10760), UAS-nAChRα3 RNAi (UAS-Dα3 RNAi, #101806); UAS-dicer2 (#60009) were obtained from the Vienna Drosophila Resource Center (VDRC); and UAS-mCD8::GFP (#108068) was obtained from Kyoto Stock Center. elav-Gal4 (3A3) was obtained from Michael B. O’Connor. nAChRα3-knock-in 2A-Gal4 (Dα3-knock-in T2A-Gal4) was generated by the CRISPR/Cas9 system as described in detail below.
Adult D. melanogaster flies were collected within a day following eclosion and placed in normal fly food (less than 30 flies/vial). Flies were transferred daily to new fly food. 2–5 days after eclosion, flies were briefly anesthetised with CO2, and the sexes were separated and sorted into fly vials containing 1.0% agar food for starvation (10 flies/vial). After 16 h starvation, flies were transferred to vials containing neonicotinoid-containing food without anesthesia and cultured for 6 h (10 flies/vial). Neonicotinoid-containing foods were prepared by mixing 10 μL of diluted neonicotinoids dissolved in DMSO with 990 μL of a solution containing 1% agar and 5% sucrose for each vial. After 6 h cultured in vials containing neonicotinoid-containing food, flies were gently tapped down to the surface of the food, and flies that climbed within 20 s after tapping were recorded by a video camera (GZ-F270-W, JVCKENWOOD, Japan). The maximum climbing heights of the flies within 20 s after tapping were measured using ImageJ1.53v (National Institute of Health, USA). Since the height from the surface of the food to the vial top is 8 cm, the maximum climbing height is 8 cm.

D. melanogaster larvae = assay: Pupariation rate assay; format: in vivo
Procedure: as §6
Eggs were laid on grape juice plates with yeast paste at 25°C for 6 h. […] After a week of incubation at 25°C, pupal numbers were scored in each vial.

[2] = efficacy, mean ± standard error (n = 5)
[3] = normalised to maximum ACh response
[4] = mean ± standard error (n = 5), read-out: pEC50 (converted)
[5] = normalised to maximum ACh response, mean ± standard error (n = 5)
[6] = RNAi of Dα1 (pan-neuronal knockdown) vs control
[7] = RNAi of Dα2 (pan-neuronal knockdown) vs control

Compound	Imax (Dα3/Dβ1 nAChR; efficacy)	Imax (Dα1/Dα3/Dβ1 nAChR; [2])	Imax (Dα1/Dα2/Dα3/Dβ1 nAChR; efficacy)	Imax (Dα1/Dα3/Dβ1/Dβ2 nAChR; efficacy)	EC50 (Dα3/Dβ1 nAChR) [nM]	Imax (Dα3/Dβ1 nAChR; [3])	sensitivity in adults, effect of RNAi ([1]; adult males)	EC50 (Dα1/Dα3/Dβ1 nAChR; [4]) [nM]	Imax (Dα1/Dα3/Dβ1 nAChR; [5])	EC50 (Dα1/Dα2/Dα3/Dβ1 nAChR) [nM]	Imax (Dα1/Dα2/Dα3/Dβ1 nAChR; [3])	EC50 (Dα1/Dα3/Dβ1/Dβ2 nAChR) [nM]	Imax (Dα1/Dα3/Dβ1/Dβ2 nAChR; [3])	toxicity in larvae, effect of RNAi (D. melanogaster larvae; [6])	toxicity in larvae, effect of RNAi (D. melanogaster larvae; [7])	sensitivity in adults, effect of RNAi ([1]; adult females)	EC50 (Dα1/Dα3/Dβ1 nAChR; read-out: EC50) [nM]
CC(=O)OCC[N+](C)(C)C [ACh, acetylcholine]	1	1	1	1	–	–	–	–	–	–	–	–	–	–	–	–	–
CN/C(=N\[N+](=O)[O-])NCc1cnc(Cl)s1 [Clothianidin, clothianidin]	0.691	0.627	0.817	0.684	28.8	0.691 ± 0.013	hypersensitivity	63.1	0.627 ± 0.025	282	0.817 ± 0.024	39.8	0.684 ± 0.022	reduced toxicity	reduced toxicity	–	–
O=[N+]([O-])NC1=NCCN1Cc1ccc(Cl)nc1 [Imidacloprid, imidacloprid]	0.032	0.170	0.094	0.330	4.79	0.032 ± 0.003	hypersensitivity	26.3	0.170 ± 0.020	83.2	0.094 ± 0.007	30.2	0.330 ± 0.018	reduced toxicity	reduced toxicity	hypersensitivity	–
N#C/N=C1\SCCN1Cc1ccc(Cl)nc1 [Thiacloprid, thiacloprid]	0.016	0.047	0.047	0.107	15.8	0.016 ± 0.001	hypersensitivity	–	0.047 ± 0.006	18.6	0.047 ± 0.004	10	0.107 ± 0.015	reduced toxicity	reduced toxicity	hypersensitivity	8.51
